What is called IC50 is the concentration at which inhibition is half-maximal.

The target of assay [1] is phencyclidene (PCP) receptors. The experiment in a line: [3H]TCP receptor binding (RBS1), rat brain cortex membranes. Particulars: for IC50: [3H]TCP, rat brain cortex membranes, read-out: Inhibition of [^3 H]TCP Receptor Binding, RBS1 IC50; for potency compared with TCP and MK-801 (in words): comparison from Table II; for inhibition of [^3 H]TCP receptor binding (in words): conclusion from Table II. The protocol: Tritiated TCP binding, designated RBS1, was carried out essentially as described in J. Pharmacol. Exp. Ther., 238, 739-748 (1986).

The subject of assay [2] is cultured rat cortical neurons. Kind of assay: Inhibition of hypoxia induced [45Ca] influx (HCI) into cultured rat cortical neurons. Type of assay: cell-based. To be noted: for IC50: Cortical neurone, cultured rat cortical neurons, 95% N2/5% CO2, 37° C., 4 hours; for inhibition of hypoxia induced calcium influx (in words): conclusion from Table IV. An excerpt: (§1) The ability of the compounds of the instant invention to inhibit the glutamate and hypoxia stimulated influx of calcium into cultured rat cortical neurons is shown in Table III and Table IV respectively. The methodology for determining the ability of the compounds of the instant invention to inhibit the glutamate stimulated calcium influx (GCI) into cultured rat cortical neurons is to be found in: A. W. Probert and F. W. Marcoux, Soc. Neurosci. Abstr., 13, Part II, 754, (1987). Using a similar culture system, the ability of the compounds of the instant invention to inhibit the hypoxia stimulated influx of calcium (HCI) was determined by incubating cultured cells in an atmosphere of nitrogen (95%) and CO2 (5%) at 37° C. for a period of 4 hours. Calcium influx was determined by subtraction of the stimulated influx in the presence of tetrodotoxin (3 μM) and magnesium (10 mM) from that found in the absence (control) and in the presence of the test substance.

The test system of assay [3] is cultured rat cortical neurons. The experiment in a line: Inhibition of glutamate stimulated [45Ca] influx (GCI) into cultured rat cortical neurons. Particulars: for IC50: Cortical neurone, cultured rat cortical neurons, glutamate stimulated; for inhibition of glutamate stimulated influx of calcium (in words): conclusion from Table III. It counts as cell-based.
Excerpt: as §1

Structures are written as SMILES.

With `NC12CCCCC1Cc1ccccc12` (centres unmarked) [Example 1, 1,2,3,4,9,9a-hexahydro-4aH-fluoren-4a-amine], in assay [1], the IC50 turned out to be 27 nM; the “potency compared with TCP and MK-801 (in words)” value was “potency comparable to both TCP and MK-801”; the “inhibition of [^3 H]TCP receptor binding (in words)” value is “potent inhibitors”. In assay [2], the IC50 was 167 nM and the “inhibition of hypoxia induced calcium influx (in words)” value is on record as “potent inhibitors”.

As for `CNC12CCCCC1Cc1ccccc12` (centres unmarked) [Example 2, 1,2,3,4,9,9a-hexahydro-N-methyl-4aH-fluoren-4a-amine], in assay [1], the concentration for half-maximal inhibition (IC50) was found to be 15 nM; the “potency compared with TCP and MK-801 (in words)” value was “potency comparable to both TCP and MK-801”; the “inhibition of [^3 H]TCP receptor binding (in words)” value is “potent inhibitors”. In addition, in assay [3], the IC50 turned out to be 304 nM and the “inhibition of glutamate stimulated influx of calcium (in words)” value (“inhibition … of calcium (in words)” for short) was “inhibit the glutamate stimulated influx of calcium”. In assay [2], the IC50 was found to be 5 nM and the “inhibition of hypoxia induced calcium influx (in words)” value is “potent inhibitors”.

`COCCCNC12CCCCC1Cc1ccccc12` (centres unmarked) [Example 8, 1,2,3,4,9,9a-hexahydro-N-(3-methoxypropyl)-4aH-fluoren-4a-amine]: in assay [1], the IC50 turned out to be 102 nM and the “inhibition of [^3 H]TCP receptor binding (in words)” value is “potent inhibitors”. Besides, in assay [3], half-maximal inhibition (IC50) was put at 1900 nM and the “inhibition … of calcium (in words)” value is recorded as “inhibit the glutamate stimulated influx of calcium”. For the same compound, in assay [2], the IC50 worked out at 43 nM and the “inhibition of hypoxia induced calcium influx (in words)” value is “potent inhibitors”.

`CNC12CC(C)CCC1Cc1ccccc12` (centres unmarked) [Example 12, 1,2,3,4,9,9a-hexahydro-3-methyl-N-methyl-(4aH)-fluoren-4a-amine]: in assay [1], the half-maximal inhibitory concentration (IC50) worked out at 95 nM and the “inhibition of [^3 H]TCP receptor binding (in words)” value is listed as “potent inhibitors”. Further, in assay [3], the IC50 worked out at 1900 nM and the “inhibition … of calcium (in words)” value is listed as “inhibit the glutamate stimulated influx of calcium”. Also, in assay [2], the IC50 turned out to be 95 nM and the “inhibition of hypoxia induced calcium influx (in words)” value was “potent inhibitors”.

On to `CCNC12CCCCC1Oc1ccccc12` (centres unmarked) [Example 27, N-ethyl-6,7,8,9-tetrahydro-9a(5aH)-dibenzofuranamine], for which, in assay [1], the IC50 was 141 nM and the “inhibition of [^3 H]TCP receptor binding (in words)” value is “potent inhibitors”. Moreover, in assay [3], the IC50 stood at 1800 nM and the “inhibition … of calcium (in words)” value was “inhibit the glutamate stimulated influx of calcium”. For the same compound, in assay [2], half-maximal inhibition (IC50) required 124 nM and the “inhibition of hypoxia induced calcium influx (in words)” value is “potent inhibitors”.

As for `CNC12CCCCC1Sc1ccccc12` (centres unmarked) [Example 30, 6,7,8,9-tetrahydro-N-methyl-9a(5aH)-dibenzothiophenamine], in assay [1], the half-maximal inhibitory concentration (IC50) worked out at 10 nM; the “potency compared with TCP and MK-801 (in words)” value was “potency comparable to both TCP and MK-801”; the “inhibition of [^3 H]TCP receptor binding (in words)” value was “potent inhibitors”. Moreover, in assay [3], the IC50 turned out to be 260 nM and the “inhibition … of calcium (in words)” value was “inhibit the glutamate stimulated influx of calcium”. Further, in assay [2], 200 nM corresponded to half-maximal inhibition (IC50) and the “inhibition of hypoxia induced calcium influx (in words)” value is given as “potent inhibitors”.

For `C[C@]12N[C@H](Cc3ccccc31)c1ccccc12` [MK-801, reference compound], the 50% inhibitory concentration (IC50) amounted to 51 nM in assay [3] and 34 nM in assay [2].

Consider `c1ccc(C2(N3CCCCC3)CCCCC2)cc1` [PCP, phencyclidene, reference compound], for which the IC50 is 40 nM in assay [1], 160 nM in assay [3] and 45 nM in assay [2].

`CNC1(c2ccccc2Cl)CCCCC1=O` (centres unmarked) [ketamine, reference compound]: the IC50 in assay [3] worked out at 5500 nM; in assay [2], 1900 nM.

The record behind these values is patent US4837226A, “Polycyclic amine derivatives useful as cerebrovascular agents” (Warner-Lambert Company, priority 1988, dated 1989).
